# Literature values in patent US7498354B2, “Pyrrolo[2,3-D]imidazoles for the treatment of hyperproliferative disorders” (OSI Pharmaceuticals, Inc., priority 2006, dated 2009).
# Structures can show the parent of a compound that is named as a salt.
# Legend:
# [1] = system: MO7e human leukemia cells; conditions: Kit ligand stimulation
# [2] = system: MO7e human leukemia cells; conditions: GM-CSF stimulation
smiles,measurement,setting,value
"Cc1ccc(NC(=O)c2ccc(CN3CCN(C)CC3)cc2)cc1Nc1nccc(-c2cccnc2)n1 [Gleevec, imatinib mesylate]",Kit ligand-stimulated growth of MO7e human leukemia cells,[1],inhibited
same,apoptosis in Kit ligand-stimulated MO7e cells,[1],induces apoptosis
same,GM-CSF stimulated growth of MO7e human leukemia cells,[2],not affected
